Test results reported in patent US6562838B2, “Treatment of cardiovascular disease with quinolinone enantiomers” (R. T. Alamo Ventures I, L.L.C., priority 2001, dated 2003).
Entries after “also recorded” stand apart in the source; their conditions may differ.

Columns and labels:
[1] = target: T1, PDE6 partially purified from bovine retinal rod and activated by trypsin (Bos taurus, UniProt P11541+P23439); assay: PDE6 inhibition assay, Viagra vs racemic flosequinan (Example 1); type: biochemical
T1 construct: from tissue; host or cells: bovine retinal rod
T1 sequence (P11541 2-856 limits assumed): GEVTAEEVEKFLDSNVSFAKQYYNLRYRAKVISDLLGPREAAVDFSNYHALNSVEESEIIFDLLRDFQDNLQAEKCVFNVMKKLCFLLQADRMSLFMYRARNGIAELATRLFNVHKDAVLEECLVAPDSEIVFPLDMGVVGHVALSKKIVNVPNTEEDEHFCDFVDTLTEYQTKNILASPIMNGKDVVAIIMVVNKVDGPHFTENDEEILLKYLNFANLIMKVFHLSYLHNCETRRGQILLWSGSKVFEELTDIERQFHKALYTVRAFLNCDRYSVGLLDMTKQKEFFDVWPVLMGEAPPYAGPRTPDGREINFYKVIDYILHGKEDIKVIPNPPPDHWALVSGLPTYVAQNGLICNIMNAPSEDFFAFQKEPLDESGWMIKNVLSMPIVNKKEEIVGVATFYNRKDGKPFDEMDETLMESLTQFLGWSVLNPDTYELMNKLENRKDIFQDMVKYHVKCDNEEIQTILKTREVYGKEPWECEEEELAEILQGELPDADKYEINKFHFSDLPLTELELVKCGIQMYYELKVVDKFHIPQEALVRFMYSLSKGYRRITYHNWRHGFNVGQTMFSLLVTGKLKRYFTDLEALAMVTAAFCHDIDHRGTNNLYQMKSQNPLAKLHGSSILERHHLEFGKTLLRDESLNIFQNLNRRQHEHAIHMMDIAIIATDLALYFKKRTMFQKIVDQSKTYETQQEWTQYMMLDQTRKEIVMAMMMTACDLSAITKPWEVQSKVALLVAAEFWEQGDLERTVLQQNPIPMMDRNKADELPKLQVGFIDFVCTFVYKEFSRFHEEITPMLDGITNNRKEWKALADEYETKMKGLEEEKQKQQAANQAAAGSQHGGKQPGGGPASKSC
T1 sequence (P23439 2-850 limits assumed): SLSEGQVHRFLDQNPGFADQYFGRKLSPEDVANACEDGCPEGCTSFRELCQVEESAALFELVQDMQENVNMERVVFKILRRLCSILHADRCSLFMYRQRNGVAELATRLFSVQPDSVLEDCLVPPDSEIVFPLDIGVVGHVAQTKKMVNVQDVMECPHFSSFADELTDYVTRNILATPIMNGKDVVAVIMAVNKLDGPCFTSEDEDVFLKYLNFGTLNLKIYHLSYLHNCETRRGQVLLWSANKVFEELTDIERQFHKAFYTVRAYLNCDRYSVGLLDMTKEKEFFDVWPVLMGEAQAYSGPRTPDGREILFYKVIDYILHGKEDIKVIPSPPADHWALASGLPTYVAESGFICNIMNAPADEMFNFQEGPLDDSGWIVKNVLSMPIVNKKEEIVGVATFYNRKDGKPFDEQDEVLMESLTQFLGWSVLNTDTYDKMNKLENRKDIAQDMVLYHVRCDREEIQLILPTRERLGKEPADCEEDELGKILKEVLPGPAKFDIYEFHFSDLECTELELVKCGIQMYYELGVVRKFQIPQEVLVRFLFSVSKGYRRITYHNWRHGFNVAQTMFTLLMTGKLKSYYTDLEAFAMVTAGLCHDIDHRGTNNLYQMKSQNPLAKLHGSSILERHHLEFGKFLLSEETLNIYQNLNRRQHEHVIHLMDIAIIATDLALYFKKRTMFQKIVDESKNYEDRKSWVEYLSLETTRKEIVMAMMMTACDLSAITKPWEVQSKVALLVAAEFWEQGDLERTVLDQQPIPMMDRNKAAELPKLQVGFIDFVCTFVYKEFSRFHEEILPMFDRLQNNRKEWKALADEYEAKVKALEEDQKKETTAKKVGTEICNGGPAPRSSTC
Experimental: (§1) PDE6 partially purified from bovine retinal rod and activated by trypsin was used. In four separate reactions, Viagra at molar concentrations of 0.3 μM, 1.0 μM, and 3.0 μM, and a 100 μM racemic mixture of flosequinan were incubated with 0.2 μg/ml active PDE6 and 100 μM cGMP containing 0.1 μM [^3H]cGMP in Tris buffer pH 7.5 for 20 minutes at 30° C. Each reaction was terminated by raising the temperature to 100° C. for 2 minutes. The resulting GMP was converted to guanosine by addition of 10 mg/ml snake venom nucleotidase and further incubated at 30° C. for 10 minutes. Unhydrolyzed cGMP was bound to AGI-X2 resin, and [^3H]guanosine remaining in the aqueous phase was quantitated by scintillation counting.

[2] = tested on: PDE4 partially purified from human U-937 pronocytic cells; assay: PDE4 enzyme inhibition assay (Example 3); type: biochemical; details: 100 μM
Experimental: (§2) In this example, a racemic mixture of flosequinan and the (+) and (−) enantiomers of flosequinan were subjected to biochemical enzyme assays to determine their respective percent inhibition of a variety of phosphodiesterases (PDE1-PDE6). The reaction conditions for each PDE assay were as follows.
(§3) PDE4 partially purified from human U-937 pronocytic cells was used. A racemic mixture of flosequinan, and each enantiomer of flosequinan, all at a molar concentration of 100 μM, were independently incubated with 20 μg PDE4 enzyme and 1 μM cAMP containing 0.01 μM [^3H]cAMP in Tris buffer pH 7.5 for 20 minutes at 30° C. The reaction was terminated by boiling for 2 minutes, and the resulting AMP was converted to adenosine by addition of 10 mg/ml snake venom nucleotidase and further incubation at 30° C. for 10 minutes. Unhydrolyzed cAMP was bound to AGI-X2 resin, and the remaining [^3H]adenosine in the aqueous phase was quantitated by scintillation counting.

[3] = Solubility; type: physicochemical
Text: Thus, while the present invention is not limited by the form of oral administration, aqueous and organic solution of an enantiomer of flosequinan for oral administration is contemplated. Likewise, an enantiomer of flosequinan can be associated with a solid pharmaceutical carrier for solid oral administration (i.e., in pill form).

[4] = tested on: phosphodiesterase III (PDE3); details: Gristwood et al. 1992; Frodsham et al. 1992; cited from earlier work
[5] = target: T2, PDE1 partially purified from bovine heart (Bos taurus, UniProt P14100); assay: PDE1 enzyme inhibition assay (Example 3); type: biochemical; details: 100 μM
T2 construct: PDE1 partially purified from bovine heart was used; from tissue; host or cells: bovine heart
Experimental: as §2
as §3, with “PDE1 partially” for “PDE4 partially”, “from bovine heart” for “from human U-937 pronocytic cells”, “with 13” for “with 20”, “μg PDE1 enzyme, 1.0” for “μg PDE4 enzyme and 1 μM cAMP containing 0.01”, “[^3H]cAMP and CaCl2/calmodulin” for “[^3H]cAMP”

[6] = target: T3, PDE2 partially purified from human platelets (Homo sapiens, UniProt O00408); assay: PDE2 enzyme inhibition assay (Example 3); type: biochemical; details: 100 μM
T3 construct: PDE2 partially purified from human platelets was used; from tissue; host or cells: human platelets
T3 sequence (O00408 whole entry): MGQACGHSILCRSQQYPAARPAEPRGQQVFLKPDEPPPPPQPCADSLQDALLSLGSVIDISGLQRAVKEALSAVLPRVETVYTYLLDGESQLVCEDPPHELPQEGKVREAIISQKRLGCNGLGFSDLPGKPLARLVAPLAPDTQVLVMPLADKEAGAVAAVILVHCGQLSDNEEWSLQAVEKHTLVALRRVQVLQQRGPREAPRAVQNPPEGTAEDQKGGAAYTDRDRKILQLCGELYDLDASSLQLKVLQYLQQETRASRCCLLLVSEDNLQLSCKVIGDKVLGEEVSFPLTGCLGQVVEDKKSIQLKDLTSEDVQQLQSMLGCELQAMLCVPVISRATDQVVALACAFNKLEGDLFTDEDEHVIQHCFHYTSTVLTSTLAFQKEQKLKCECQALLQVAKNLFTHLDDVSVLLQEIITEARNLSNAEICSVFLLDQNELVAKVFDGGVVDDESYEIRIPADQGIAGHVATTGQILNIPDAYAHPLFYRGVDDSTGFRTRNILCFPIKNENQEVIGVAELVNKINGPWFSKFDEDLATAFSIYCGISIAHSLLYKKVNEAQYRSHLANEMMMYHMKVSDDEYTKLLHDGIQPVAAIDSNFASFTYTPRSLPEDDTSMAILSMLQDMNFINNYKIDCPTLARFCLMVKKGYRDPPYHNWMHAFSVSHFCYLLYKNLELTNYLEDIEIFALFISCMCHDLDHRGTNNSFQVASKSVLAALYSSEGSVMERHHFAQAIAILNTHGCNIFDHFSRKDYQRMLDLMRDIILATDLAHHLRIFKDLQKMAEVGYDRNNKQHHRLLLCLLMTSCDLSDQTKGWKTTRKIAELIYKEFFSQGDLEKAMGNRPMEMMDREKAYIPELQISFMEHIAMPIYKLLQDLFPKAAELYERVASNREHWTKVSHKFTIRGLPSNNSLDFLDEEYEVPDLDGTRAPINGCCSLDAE
Experimental: as §2
as §3, with “PDE2 partially” for “PDE4 partially”, “human platelets” for “human U-937 pronocytic cells”, “with 23” for “with 20”, “μg PDE2 enzyme, 25” for “μg PDE4 enzyme and 1”, “containing 0.05” for “containing 0.01”

[7] = target: T4, PDE3 partially purified from human platelets (Homo sapiens, UniProt Q14432); assay: PDE3 enzyme inhibition assay (Example 3); type: biochemical; details: for % Inhibition of PDE3: 100 μM
T4 construct: PDE3 partially purified from human platelets was used; from tissue; host or cells: human platelets
T4 sequence (Q14432 whole entry): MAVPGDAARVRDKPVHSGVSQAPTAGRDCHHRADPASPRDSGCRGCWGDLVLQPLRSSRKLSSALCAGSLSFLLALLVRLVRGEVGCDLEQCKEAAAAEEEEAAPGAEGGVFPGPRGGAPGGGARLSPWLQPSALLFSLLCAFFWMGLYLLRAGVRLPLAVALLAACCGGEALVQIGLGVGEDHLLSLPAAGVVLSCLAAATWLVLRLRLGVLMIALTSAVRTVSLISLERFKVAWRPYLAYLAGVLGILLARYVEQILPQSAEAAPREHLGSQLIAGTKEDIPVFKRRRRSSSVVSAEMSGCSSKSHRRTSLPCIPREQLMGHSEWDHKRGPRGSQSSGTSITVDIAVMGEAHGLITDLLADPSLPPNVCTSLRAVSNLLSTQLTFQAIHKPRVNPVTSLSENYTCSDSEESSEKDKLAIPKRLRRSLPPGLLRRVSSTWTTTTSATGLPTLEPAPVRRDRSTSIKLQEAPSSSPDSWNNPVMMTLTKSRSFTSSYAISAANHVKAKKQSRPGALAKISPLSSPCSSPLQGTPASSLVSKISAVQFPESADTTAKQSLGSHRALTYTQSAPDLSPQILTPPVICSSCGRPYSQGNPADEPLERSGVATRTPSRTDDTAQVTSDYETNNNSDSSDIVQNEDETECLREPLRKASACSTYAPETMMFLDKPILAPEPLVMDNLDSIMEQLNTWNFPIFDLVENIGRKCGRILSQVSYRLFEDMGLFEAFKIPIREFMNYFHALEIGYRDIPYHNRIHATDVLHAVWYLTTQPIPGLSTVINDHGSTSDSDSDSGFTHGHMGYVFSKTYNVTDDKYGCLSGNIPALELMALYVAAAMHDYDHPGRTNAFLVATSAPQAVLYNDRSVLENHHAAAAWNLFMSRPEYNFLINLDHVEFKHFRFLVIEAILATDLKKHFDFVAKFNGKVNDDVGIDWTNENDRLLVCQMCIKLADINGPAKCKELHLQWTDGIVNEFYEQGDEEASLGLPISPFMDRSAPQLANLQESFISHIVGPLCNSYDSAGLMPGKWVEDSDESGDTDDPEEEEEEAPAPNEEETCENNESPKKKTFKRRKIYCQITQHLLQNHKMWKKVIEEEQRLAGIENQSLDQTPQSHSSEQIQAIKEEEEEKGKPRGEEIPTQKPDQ
Experimental: as §2
as §3, with “PDE3 partially” for “PDE4 partially”, “human platelets” for “human U-937 pronocytic cells”, “with 13” for “with 20”, “μg PDE3” for “μg PDE4”

[8] = target: T5, PDE5 partially purified from human platelets (Homo sapiens, UniProt O76074); assay: PDE5 enzyme inhibition assay (Example 3); type: biochemical; details: 100 μM
T5 construct: PDE5 partially purified from human platelets was used; from tissue; host or cells: human platelets
Experimental: as §2
PDE5 partially purified from human platelets was used. A racemic mixture of flosequinan, and each enantiomer of flosequinan, all at a molar concentration of 100 μM, were independently incubated with 120 μg PDE5 enzyme and 1 μM cGMP containing 0.01 μM [^3H]cGMP in Tris buffer pH 7.5 for 20 minutes at 30° C. The reaction was terminated by boiling for 2 minutes, and the resulting GMP was converted to guanosine by addition of 10 mg/ml snake venom nucleotidase and further incubation at 30° C. for 10 minutes. Unhydrolyzed cGMP was bound to AGI-X2 resin, and the remaining [^3H]guanosine in the aqueous phase was quantitated by scintillation counting.

[9] = target: T1, PDE6 partially purified from bovine retinal rod and activated by trypsin; assay: PDE6 enzyme inhibition assay (Example 3); type: biochemical; details: 100 μM
Experimental: as §2
as §1, with “A” for “In four separate reactions, Viagra at molar concentrations of 0.3 μM, 1.0 μM, and 3.0 μM, and a 100 μM”, “flosequinan, and each enantiomer of flosequinan, all at a molar concentration of 100 μM,” for “flosequinan”, “were independently” for “were”, “boiling” for “raising the temperature to 100° C.”, “nucleotidase,” for “nucleotidase”

Row | SMILES | % Inhibition of PDE4 [2] | % Inhibition of PDE1 [5] | % Inhibition of PDE2 [6] | % Inhibition of PDE3 [7] | % Inhibition of PDE5 [8] | % Inhibition of PDE6 [9] | melting point | further results
1 | Cn1cc([S+](C)[O-])c(=O)c2ccc(F)cc21 (racemic) [Flosequinan, 7-fluoro-1-methyl-3-(methylsulphinyl)-4(1H)-quinolone] | 24% | – | – | – | – | – | – | inhibition of PDE6 compared to sildenafil citrate ([1]; 100 μM vs sildenafil citrate 1 μM (100-fold lower molar concentration)): approximately half as much inhibition of PDE6; times more compound on a molar basis than Viagra for around 50% PDE6 inhibition ([1]; vs Viagra 0.3 μM): more than 300 times; solubility in organic solvents ([3]; organic solvents): soluble in many organic solvents; solubility in water ([3]; water): water soluble; reported phosphodiesterase selectivity [4]: selective inhibitor of phosphodiesterase III (PDE3)
2 | Cn1cc([S@@+](C)[O-])c(=O)c2ccc(F)cc21 [(+)−flosequinan] | 6% | 28% | 18% | 32% | 17% | 22% | – | PDE1 inhibitory activity compared with the (−) enantiomer of flosequinan [5]: more PDE1 and PDE3 inhibitory activity; PDE3 inhibition compared to racemic mixture of flosequinan ([7]; same molar concentration): greater inhibition of PDE3; PDE3 inhibition compared to the (−) enantiomer of flosequinan ([7]; same molar concentration, listed as (+) enantiomer of flosequinan): more PDE1 and PDE3 inhibitory activity; also recorded: eight-fold increase
3 | Cn1cc([S+](C)[O-])c(=O)c2ccc(F)cc21 (stereo not drawn) [(−)−flosequinan] | 1% | 11% | 13% | 5% | 10% | 21% | – | –
4 | Cn1cc(C(N)=O)c(=O)c2sccc21 [Example 4 b, 4-methyl-7-oxo-4,7-dihydrothieno[3,2-b]pyridine-6-carboxamide] | – | – | – | – | – | – | 255 to 258 °C | –
5 | Cn1cc(C(N)=O)c(=O)c2ccc(Cl)cc21 [Example 4 e, 7-chloro-1-methyl-4-oxo-1,4-dihydroquinoline-3-carboxamide] | – | – | – | – | – | – | > 240 °C | –
